Measurements from publication PMC7555839 (Frontiers in Microbiology, 2020).
Read-outs that look alike come from different tables or passages of the source.

Tests used:
[1] = tested on: Salmonella typhimurium TA100
S. aureus USA300 JE2 = assay: Growth and viability assay; format: cell-based, Staphylococcus aureus; conditions: for Bacterial concentration after 24 h: 0.5 × MIC
Protocol: Growth and viability assays were performed according to a previously published method ([Thorsing et al., 2013]), with some modifications. In general, the assay was conducted over a 24 h period in a 37°C heating bath with shaking, using S. aureus USA300 JE2 as test strain. […] The culture was diluted 1:100 in BHI broth and grown to early exponential phase (OD600 0.20). […] This culture was grown to OD600 0.20 where sample zero was collected. […] 100 μl samples were serially diluted, spread on MHA plates, and incubated at 37°C for 20–24 h followed by successive counting.
(§1) Data were statically analyzed and visualized using RStudio v3.6.3 ([R Core Team, 2020]) and Microsoft excel. In general, the values reflecting the bacterial concentration (CFU/ml) were transformed into a logarithmic scale. In the growth and viability assay, the mean numbers of the bacterial concentrations from the triplicates were plotted against time and standard deviations shown as error bars. To investigate differences in bacterial concentration between treatment groups in the in vivo assay, multiple group comparisons were performed using ANOVA and P < 0.05 considered significant. The data was visualized in a standard box plot.

MRSA strain 43484 = assay: Mouse skin (wound) infection model, topical treatment; format: in vivo, Staphylococcus aureus; conditions: 50 μl topical twice daily for 3 days, female mice, skin biopsies day 4
Protocol: To study the effect of topical treatment with JBC 1847 against MRSA strain 43484, a mouse skin infection model was established. Initially, female mice (18–22 g) were orally treated with 45 μl nurofen (20 mg ibuprofen/ml) and anaesthetized with 0.15 ml s.c. of Zoletil mix. The fur was removed from an area of 6 cm^2 and a part of epidermis was subsequently scraped off to obtain a 1 cm^2 superficial skin lesion. The mice were inoculated with 10 μl of a saline solution containing approximately 10^7 CFU. The day after inoculation, topical treatment with 50 μl test compound was initiated and performed twice daily for a 3-day period. Fucidic acid was included as a positive control, and vehicle treatment was included as a negative control. Through the entire study, the behavior and clinical signs of the mice were carefully observed. Mice were killed the day after last treatment, and skin biopsies from the wounded area were collected. The skin samples were homogenized using a Dispomixer and serially diluted in saline/Triton X. To determine the bacterial concentration, 20 μl spots were transferred to MRSA Brilliance agar plates (Oxoid, Thermo Scientific, Roskilde, Denmark) and incubated 20–48 h at 35°C.
as §1

S. aureus USA300 = assay: Induced tolerance assay (23 days); conditions: for MIC: Staphylococcus aureus
[2] = tested on: five bacterial tester strains; assay: Ames test, overall evaluation (five tester strains); format: cell-based; conditions: in general
From the text: In this reverse mutation assay, five bacterial tester strains recommended by The Organization for Economic Cooperation and Development (OECD), were exposed to JBC 1847 in presence and absence of a metabolic activation system (S9) obtained from rat liver extract ([Maron and Ames, 1983]; [Levy et al., 2019]). The characteristics of the four Salmonella typhimurium mutants (TA98, TA100, TA1535, TA1537) and a single Escherichia coli mutant [wp2 (pKM101)] have been described by [Mortelmans and Zeiger (2000)] and [Levy et al. (2019)]. Prior to testing, the genotypes of all strains were confirmed as previously described ([Mortelmans and Zeiger, 2000]), and JBC 1847 was tested in various concentrations (1.5, 4, 10, 25, 64, 160, 400, and 1,000 μg/well) whereas DMSO served as negative control. As positive controls, five mutagenic compounds were applied in various concentrations (Supplementary Material). The Ames test was performed as described in Supplementary Material where acceptance criteria for the test results can also be found. To evaluate the test results, the mutagenicity ratio (MR) was calculated and interpreted as in previous studies ([Pah and Lakhani, 2012]; [Wang et al., 2018]). The MR was calculated as MR = x/xn. Here, x was the number of reverse mutated colonies exposed to JCB 1847 whereas xn was the number of reverse mutated colonies in the negative controls. […]

[3] = tested on: Staphylococcus aureus USA300 JE2; assay: Broth microdilution (MIC/MBC); format: cell-based; conditions: USA300 JE2, human clinical isolate
[4] = tested on: three Gram-negative pathogenic bacteria; assay: Broth microdilution, summary over Gram-negative isolates; format: cell-based
[5] = tested on: Cutibacterium acnes P10140156 (in house strain); assay: Broth microdilution (MIC/MBC), anaerobic; format: cell-based
[6] = tested on: S. epidermidis 105 (in house strain); assay: Broth microdilution (MIC/MBC); format: cell-based; conditions: Staphylococcus epidermidis; strain 105, human clinical isolate
Proteus vulgaris JEO1 = assay: Broth microdilution (MIC/MBC); format: cell-based; conditions: JEO1, veterinary clinical isolate

## CC(C)=CCCC(C)CC[N+](C)(C)CCCN1c2ccccc2Sc2ccccc21 (stereo not drawn) [JBC 1847]
[1]; TA100, + S9, 1.5 μg/well
  Mean number of reverse mutated colonies: 21.33 ± 2.08
[1]; TA100, + S9, 4 μg/well
  Mean number of reverse mutated colonies: 19.00 ± 5.29
[1]; TA100, + S9, 10 μg/well
  Mean number of reverse mutated colonies: 13.67 ± 1.53
[1]; TA100, + S9, 64 μg/well
  Mean number of reverse mutated colonies: 0.0
[1]; TA100, −S9, 1.5 μg/well
  Mean number of reverse mutated colonies: 24.33 ± 3.21
[1]; TA100, −S9, 4 μg/well
  Mean number of reverse mutated colonies: 26.67 ± 2.08
[1]; TA100, −S9, 10 μg/well
  Mean number of reverse mutated colonies: 18.00 ± 5.57
[1]; TA100, −S9, 25 μg/well
  Mean number of reverse mutated colonies: 0.0
[1]; TA100, −S9, 64 μg/well
  Mean number of reverse mutated colonies: 0.0
S. aureus USA300 JE2; trial 1
  Bacterial concentration after 24 h: approximately 10^3 CFU/ml
S. aureus USA300 JE2; trial 2
  Bacterial concentration after 24 h: 0 CFU/ml
S. aureus USA300 JE2; trial 3, increase after 6 h
  Bacterial concentration after 24 h: reached the same level as the control curve
S. aureus USA300 JE2; 4 × MIC, all three replicates
  Viable bacterial cells after 30 min: no viable bacterial cells
S. aureus USA300 JE2; MIC concentration, trial 3
  Bacterial count after 24 h: approximately 10^3 CFU/ml
S. aureus USA300 JE2; MIC concentration, trials 1 and 2
  Bacterial concentration at 24 h: 0 CFU/ml
S. aureus USA300 JE2; Staphylococcus aureus, USA300, 100 ml BHI broth flasks, culture at OD600 0.20, 37°C shaking 20–22 h, read-out: MIC (visually determined)
  MIC: 4 µg/mL
MRSA strain 43484; 1% solution
  Reduction of bacterial counts compared with the vehicle: 3.0 log10 CFU
MRSA strain 43484; 2%
  Reduction of bacterial counts compared with the vehicle: 3.7 log10 CFU
S. aureus USA300; USA300, 24 h, read-out: MIC Day 1
  MIC: 0.5 µg/mL
S. aureus USA300; USA300, 96 h, read-out: Highest MIC
  MIC: 3.5 µg/mL
S. aureus USA300; USA300, 96 h, read-out: MIC values after day 4
  MIC: 1 to 2.5 µg/mL
S. aureus USA300; USA300, 552 h, read-out: MIC Day 23
  MIC: 3.5 µg/mL
S. aureus USA300; tolerance assay, during the 23 days
  Increase in MIC: 7 fold
[2]; all strains, MR ≥ 2 interpreted as positive
  Mutagenicity ratio (MR): < 2
[2]; presence and absence of S9
  Ames test result: non-mutagenic
[3]
  MBC: 0.5 µg/mL
[3]; read-out: MIC
  MIC: 0.5 µg/mL
[4]
  MIC values (range over isolates): 8 to 32 µg/mL
[5]; BHI agar with 1% L-cystein
  MBC: 0.5 to 1 µg/mL
[5]; BHI with 1% L-cysteine
  MIC: 0.5 to 1 µg/mL
[6]
  MIC: 0.5 µg/mL
Proteus vulgaris JEO1
  MBC: 32 µg/mL
  MIC: 32 µg/mL
